Experimental data: patent US10364263B2, “Cyclic phosphates and cyclic phosphoramidates for the treatment of neurologic disorders” (Retrophin, Inc., priority 2015, dated 2019)

Experiments:
[1] = tested on: PANK2 silenced human neuroblastoma IMR32 cells (PANK2−/−); test: Coenzyme A assay in PANK2 silenced cells (LC-MS quantification of free CoA); type: cell-based; conditions: compound added twice (24 h + 24 h), relative to 0.1% DMSO controls
How it was run: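 PANK2 shRNA-silenced IMR32 neuroblastoma cells were treated with compound (0.1% DMSO) for 24 h, then re-dosed with fresh compound for a further 24 h at 37 °C. TFA extracts of 1×10^6 cells were assayed for free CoA by LC-MS/MS (MRM 768.1→261.6/136.1). Results are given as fold change versus DMSO controls.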

[2] = Stability in human hepatocytes; type: in vitro ADME
Method: (§1) Stability in hepatocytes for select compounds disclosed in the application was evaluated in two species (mouse and human) according to the following procedure. Compounds and positive control samples were dissolved in 100% DMSO at 5 mM. Cryopreserved hepatocytes were thawed and resuspended in Hepatocyte Basal Medium (HBM-Lonza CC-3199) supplemented with CC-4182 (complete hepatocyte culture medium). Test compounds were diluted into cell suspension (1 million cells/ml) from the stock solutions to have a test compound concentration of 5 μM (0.1% DMSO). Incubation was performed in 24-well plates, at 37° C. in a DUBNOFF water bath, under low shaking. Each compound was tested at 6 time points, in duplicates (0, 15, 30, 60, 120 and 240 min). At each time point, an aliquot of 120 μl was taken and transferred to a 96-well deep plate. The reaction was stopped with the addition of one volume of 100% acetonitrile plus 0.1% formic acid and the appropriate internal standard. Then samples were centrifuged at 1100×g for 30 min at +4° C. and supernatants were transferred to a new 96-deepwell plate. Samples were evaporated under N2 and reconstituted in H2O/ACN 0.1% Formic Acid (98:2). Analysis was performed without a calibration curve (Acquity UPLC-Waters; Sciex API4000). Time 0 was obtained adding acetonitrile before addition of the test compound. […] The half-life (t1/2) expressed in hours is derived using Equation 1 as shown in Example 64.

[3] = Stability in mouse plasma; type: in vitro ADME; conditions: mouse, plasma; for t1/2, Mouse Plasma, Diastereoisomer B: 3 µM
Method: Compounds and positive control samples were dissolved in 100% DMSO at 3 mM. To investigate the stability of the test compounds in plasma, samples were made by diluting test compounds into plasma from the stock solutions to obtain a test compound concentration of 3 μM (0.1% DMSO). Before addition of a test compound, 990 μl of plasma were preincubated at 37° C. for 5 min in eppendorf. After addition of a test compound, 70 μl for each time point were transferred to a 96-deepwell plate, previously warmed at 37° C. in a DUBNOFF water bath. Each compound was tested at five time points, in duplicate (10, 20, 30, 40 and 60 min). At each time point, an aliquot of 50 μl was taken and transferred to a new 96-deepwell plate, and the reaction was stopped with 200 μl of 100% acetonitrile containing 0.1% formic acid and the appropriate internal standard. Then samples were centrifuged at 1100×g for 30 min at +4° C. and supernatants were transferred to a new 96-deepwell plate. Samples were evaporated under N2 and reconstituted in H2O/ACN 0.1% Formic Acid (98:2). Analysis was performed without a calibration curve (Acquity UPLC-Waters; SciexAPI4000). Time 0 was obtained by adding acetonitrile before addition of the test compound.

[4] = Stability in human plasma; type: in vitro ADME; conditions: human, plasma, 37° C.
How it was run: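 Test compound at 3 μM (0.1% DMSO) was incubated in mouse or human plasma at 37 °C and sampled in duplicate at 0, 10, 20, 30, 40 and 60 min. Reactions were stopped with acetonitrile/formic acid containing internal standard. Remaining parent was measured by UPLC-MS/MS without a calibration curve.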

[5] = Stability in mouse hepatocytes; type: in vitro ADME; conditions: t1/2, Mouse Hepatocytes
Method: as §1

[6] = Diastereoisomer A (upfield shift in 31P NMR), 5 μM, 1 million cells/ml, 37° C., human hepatocytes, read-out: t1/2, Human Hepatocytes, Diastereoisomer A (converted)
[7] = t1/2, Human Hepatocytes, Diastereoisomer A
[8] = t1/2, Human Hepatocytes, Diastereoisomer B
[9] = Diastereoisomer A (upfield shift in 31P NMR), read-out: t1/2, Human Plasma, Diastereoisomer A (converted)
[10] = Diastereoisomer B, read-out: t1/2, Human Plasma, Diastereoisomer B (converted)

Row | half-life at 5 µM [2, 7] [min] | half-life at 3 µM [3] [min] | half-life at 3 µM [4, 9] [min] | t1/2, Mouse Plasma, Diastereoisomer B [3] [min] | half-life at 3 µM [4, 10] [min] | Compound | PANK2−/− CoA (Fold Increase): fold increase in Coenzyme A (CoA) levels relative to controls [1] [Fold Increase] | further results
1 |  |  |  |  |  | COC(=O)CCNC(=O)[C@@H]1O[P@@](=O)(Oc2ccc(C(F)(F)F)cc2)OCC1(C)C [2-119, methyl 3-((2S,4R)-5,5-dimethyl-2-oxido-2-(4-(trifluoromethyl)phenoxy)-1,3,2-dioxaphosphinane-4-carboxamido)propanoate] | 1.67 | half-life at 5 µM [2, 6]: 30.6 min
2 | 30.6 |  |  |  |  | COC(=O)CCNC(=O)[C@@H]1OP(=O)(OCOC(=O)c2scnc2C)OCC1(C)C (stereo partly drawn) [Compound No. 2-139, (((4R)-4-((3-methoxy-3-oxopropyl)carbamoyl)-5,5-dimethyl-2-oxido-1,3,2-dioxaphosphinan-2-yl)oxy)methyl 4-methylthiazole-5-carboxylate] | 44.21 | half-life at 5 µM [2, 8]: 15.6 min
3 | < 15 |  |  |  |  | COC(=O)CCNC(=O)[C@@H]1OP(=O)(OCOC(=O)c2ccns2)OCC1(C)C (stereo partly drawn) [Compound No. 2-140, (((4R)-4-((3-methoxy-3-oxopropyl)carbamoyl)-5,5-dimethyl-2-oxido-1,3,2-dioxaphosphinan-2-yl)oxy)methyl isothiazole-5-carboxylate] | 37.02 | half-life at 5 µM [2, 8]: < 15 min
4 |  | < 9.6 | 27 |  |  | CC(C)(C)C(=O)OCO[P@@]1(=O)OCC(C)(C)[C@H](C(=O)NCCC(=O)OC2CCNC2)O1 (stereo partly drawn) [Compound No. 92, (((2S,4R)-5,5-dimethyl-2-oxido-4-((3-oxo-3-(pyrrolidin-3-yloxy)propyl)carbamoyl)-1,3,2-dioxaphosphinan-2-yl)oxy)methyl pivalate] | 5.13 | 
5 |  | < 9.6 | > 60 | <9.6 | > 60 | Cc1cc(COC(=O)CCNC(=O)[C@@H]2OP(=O)(N[C@@H](C)C(=O)OCCc3ccccc3)OCC2(C)C)no1 (stereo partly drawn) [compound 40, (5-methylisoxazol-3-yl)methyl 3-((4R)-5,5-dimethyl-2-oxido-2-(((S)-1-oxo-1-phenethoxypropan-2-yl)amino)-1,3,2-dioxaphosphinane-4-carboxamido)propanoate] | 2.77 | 
6 | 70.8 |  |  |  |  | COC(=O)[C@H](C)NP1(=O)OCC(C)(C)[C@H](C(=O)NCCC(=O)OCc2cc(C)on2)O1 (stereo partly drawn) [compound 21, (2S)-methyl 2-(((4R)-5,5-dimethyl-4-((3-((5-methylisoxazol-3-yl)methoxy)-3-oxopropyl)carbamoyl)-2-oxido-1,3,2-dioxaphosphinan-2-yl)amino)propanoate] |  | half-life at 5 µM ([5]; Diastereoisomer A): < 15 min; half-life at 5 µM ([5]; Diastereoisomer B): < 15 min; half-life at 5 µM [2, 8]: 40.2 min
7 |  | 12 | > 60 |  |  | C[C@H](NP1(=O)OCC(C)(C)[C@H](C(=O)NCCC(=O)O)O1)C(=O)OCCc1ccccc1 (stereo partly drawn) [compound 41, 3-((4R)-5,5-dimethyl-2-oxido-2-(((S)-1-oxo-1-phenethoxypropan-2-yl)amino)-1,3,2-dioxaphosphinane-4-carboxamido)propanoic acid] | 2.02 | 
8 |  | < 9.6 | > 60 | <9.6 | > 60 | COC(=O)CCNC(=O)[C@@H]1OP(=O)(N[C@H](C)C(=O)OCCc2scnc2C)OCC1(C)C (stereo partly drawn) [compound 32, methyl 3-((4R)-5,5-dimethyl-2-(((R)-1-(2-(4-methylthiazol-5-yl)ethoxy)-1-oxopropan-2-yl)amino)-2-oxido-1,3,2-dioxaphosphinane-4-carboxamido)propanoate] | 1.49 | 
9 |  | < 9.6 | 49.8 | <9.6 | > 60 | COC(=O)CCNC(=O)[C@@H]1OP(=O)(N[C@@H](Cc2cccnc2)C(=O)OCc2ccccc2)OCC1(C)C (stereo partly drawn) [compound 30, (2S)-benzyl 2-(((4R)-4-((3-methoxy-3-oxopropyl)carbamoyl)-5,5-dimethyl-2-oxido-1,3,2-dioxaphosphinan-2-yl)amino)-3-(pyridin-3-yl)propanoate] | 0.93 | 
10 |  |  |  |  |  | COC(=O)CCNC(=O)[C@@H]1OP(=O)(Oc2ccc(F)cc2)OCC1(C)C (stereo partly drawn) [2-118, methyl 3-((4R)-2-(4-fluorophenoxy)-5,5-dimethyl-2-oxido-1,3,2-dioxaphosphinane-4-carboxamido)propanoate] | 1.38 | half-life at 5 µM [2, 6]: 33 min; half-life at 5 µM ([2]; Diastereoisomer B, 5 μM, 1 million cells/ml, 37° C., human hepatocytes, read-out: t1/2, Human Hepatocytes, Diastereoisomer B (converted)): 36 min
11 | 25.2 |  |  |  |  | COC(=O)CCNC(=O)[C@@H]1OP(=O)(OCOC(=O)NCCSC(=O)C(C)(C)C)OCC1(C)C (stereo partly drawn) [2-143, methyl 3-((4R)-5,5-dimethyl-2-oxido-2-((((2-(pivaloylthio)ethyl)carbamoyl)oxy)methoxy)-1,3,2-dioxaphosphinane-4-carboxamido)propanoate] | 1.39 | half-life at 5 µM [2, 8]: 19.2 min
12 |  | < 9.6 | > 60 | <9.6 | > 60 | COC(=O)CCNC(=O)[C@@H]1OP(=O)(OCCc2cccnc2)OCC1(C)C (stereo partly drawn) [compound 61, methyl 3-((4R)-5,5-dimethyl-2-oxido-2-(2-(pyridin-3-yl)ethoxy)-1,3,2-dioxaphosphinane-4-carboxamido)propanoate] | 1.93 | 
13 |  | < 9.6 | < 9.6 | <9.6 | < 9.6 | COC(=O)CCNC(=O)[C@@H]1OP(=O)(OCOC(=O)C2(C)CN(C(=O)OC(C)(C)C)C2)OCC1(C)C (stereo partly drawn) [Compound No. 85, 1-(tert-butyl) 3-((((4R)-4-((3-methoxy-3-oxopropyl)carbamoyl)-5,5-dimethyl-2-oxido-1,3,2-dioxaphosphinan-2-yl)oxy)methyl) 3-methylazetidine-1,3-dicarboxylate] | 216.8 | 
14 | > 240 |  |  |  |  | COC(=O)[C@H](C)N[P@@]1(=O)OCC(C)(C)[C@H](C(=O)NCCC(=O)OCc2cn(C)cn2)O1 [compound 22, methyl ((2R,4R)-5,5-dimethyl-4-((3-((1-methyl-1H-imidazol-4-yl)methoxy)-3-oxopropyl)carbamoyl)-2-oxido-1,3,2-dioxaphosphinan-2-yl)-L-alaninate] |  | half-life at 5 µM ([5]; Diastereoisomer A): 37.2 min

Row | Compound | half-life at 5 µM [2, 7] [min] | half-life at 3 µM [3] [min] | half-life at 3 µM [4, 9] [min] | t1/2, Mouse Plasma, Diastereoisomer B [3] [min] | half-life at 3 µM [4, 10] [min] | PANK2−/− CoA (Fold Increase): fold increase in Coenzyme A (CoA) levels relative to controls [1] [Fold Increase] | further results
15 | COC(=O)CCNC(=O)[C@@H]1OP(=O)(OCOC(=O)CN2CCN(C(C)=O)CC2)OCC1(C)C (stereo partly drawn) [compound 80, methyl 3-((4R)-2-((2-(4-acetylpiperazin-1-yl)acetoxy)methoxy)-5,5-dimethyl-2-oxido-1,3,2-dioxaphosphinane-4-carboxamido)propanoate] |  | < 9.6 | 40.2 |  |  | 1.48 | 
